Measurements: US20200164005A1, “PHARMACEUTICAL COMPOSITIONS OF A BILE ACID DERIVATIVE AND MICROBIOME AND USES THEREOF” (Intercept Pharmaceuticals, Inc., priority 2017, published 2020)

System: C4 (7α-hydroxy-4-cholesten-3-one)
Assay: Plasma C4 level after OCA and its association with microbiome species (GEE)
Format: in vivo, human
Method: C4 level was measured on 5 mg and 10 mg OCA dose groups. The day 1 pre-dose C4 was used as a match of day 1 microbiome measurement. The average level of C4 from day 4 to day 17 pre-dose was calculated as a match of day 15 or 16 microbiome measurement. The average C4 level on day 30 and day 44 was used as a match of microbiome on day 37. The average of multiple time points was taken to match the three time points of microbiome measurements.
Geeglm(fgf19·log 2˜hour+dose+hour:dose, id=sID, corstr=“exchangeable”) • C4 analysis: The GEE model was applied in association study of C4 and microbiome species. Both C4 and species relative abundance were log 2 transformed before applying GEE model.
Geeglm(species·log 2˜C4·log 2, id=sID, corstr=“exchangeable”)
Twenty-four healthy subjects were randomly assigned to one of three dose groups (5 mg, 10 mg, or 25 mg OCA per day), with each dose group comprising eight subjects (four women and four men). A single oral OCA dose of 5 mg, 10 mg, or 25 mg tablets, depending on the treatment assignment, was administered on Day 1. In the multiple-dose phase, a single oral OCA dose of 5 mg, 10 mg, or 25 mg tablets, in accordance with the assigned treatment, was administered orally once daily for 14 days from Days 4-17. The patients remained at the study site until Day 30, and were followed up until the final visit on Day 44 (FIG. 62A). Fecal specimens were collected at baseline (Day 0), at the end of the multiple-dose phase (Day 17), and at the end of the study (Day 37). Pharmacokinetic blood samples were assessed pre-dose and on Days 1-3, 17, 35, 37, 39, and 44. […] Therefore, plasma C4 levels are a reliable dynamic indicator of the host response to FXR activation by OCA, that leads to the suppression of endogenous bile acid synthesis (Hirschfield et al., Gastroenterology 148, 751-761 e758 (2015); Mudaliar et al., Gastroenterology 145, 574-582 e571 (2013)).

CC[C@H]1[C@@H](O)[C@@H]2[C@H](CC[C@]3(C)[C@@H]([C@H](C)CCC(=O)O)CC[C@@H]23)[C@@]2(C)CC[C@@H](O)C[C@@H]12 [OCA, 3α,7α-dihydroxy-6α-ethyl-5β-cholan-24-oic acid]
plasma levels of C4 relative to Day 0 (pre-OCA dose) (Day 16): maximally suppressed
plasma levels of C4 at maximal time off OCA (Day 37): returned to normal
plasma C4 in response to OCA treatment (serial quantification, repeated measure ANOVA): time-dependent reduction
